Measurements from US10092570B2 (Incyte Corporation, priority 2011, dated 2018).

Biological target: PI3Kδ (p110δ/p85α) (Homo sapiens (Human), UniProt O00329)
Test: Example A3: PI3Kδ scintillation proximity assay
Type: biochemical
Conditions: scintillation proximity assay, 20 μM ATP, 4 nM PI3Kδ; read-out: PI3Kδ SPA IC50
Summary of the method: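 p110δ/p85α (4 nM) phosphorylated 20 μM PIP2 with 20 μM ATP plus [γ-33P]ATP in MOPS pH 6.7, MgCl2, DTT, CHAPS, 0.5% DMSO, at RT. Stopped with EDTA/excess ATP, product captured on WGA SPA beads overnight and counted; IC50 from percent control activity versus log inhibitor.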

PI3Kδ (p110δ/p85α), sequence (O00329 whole entry): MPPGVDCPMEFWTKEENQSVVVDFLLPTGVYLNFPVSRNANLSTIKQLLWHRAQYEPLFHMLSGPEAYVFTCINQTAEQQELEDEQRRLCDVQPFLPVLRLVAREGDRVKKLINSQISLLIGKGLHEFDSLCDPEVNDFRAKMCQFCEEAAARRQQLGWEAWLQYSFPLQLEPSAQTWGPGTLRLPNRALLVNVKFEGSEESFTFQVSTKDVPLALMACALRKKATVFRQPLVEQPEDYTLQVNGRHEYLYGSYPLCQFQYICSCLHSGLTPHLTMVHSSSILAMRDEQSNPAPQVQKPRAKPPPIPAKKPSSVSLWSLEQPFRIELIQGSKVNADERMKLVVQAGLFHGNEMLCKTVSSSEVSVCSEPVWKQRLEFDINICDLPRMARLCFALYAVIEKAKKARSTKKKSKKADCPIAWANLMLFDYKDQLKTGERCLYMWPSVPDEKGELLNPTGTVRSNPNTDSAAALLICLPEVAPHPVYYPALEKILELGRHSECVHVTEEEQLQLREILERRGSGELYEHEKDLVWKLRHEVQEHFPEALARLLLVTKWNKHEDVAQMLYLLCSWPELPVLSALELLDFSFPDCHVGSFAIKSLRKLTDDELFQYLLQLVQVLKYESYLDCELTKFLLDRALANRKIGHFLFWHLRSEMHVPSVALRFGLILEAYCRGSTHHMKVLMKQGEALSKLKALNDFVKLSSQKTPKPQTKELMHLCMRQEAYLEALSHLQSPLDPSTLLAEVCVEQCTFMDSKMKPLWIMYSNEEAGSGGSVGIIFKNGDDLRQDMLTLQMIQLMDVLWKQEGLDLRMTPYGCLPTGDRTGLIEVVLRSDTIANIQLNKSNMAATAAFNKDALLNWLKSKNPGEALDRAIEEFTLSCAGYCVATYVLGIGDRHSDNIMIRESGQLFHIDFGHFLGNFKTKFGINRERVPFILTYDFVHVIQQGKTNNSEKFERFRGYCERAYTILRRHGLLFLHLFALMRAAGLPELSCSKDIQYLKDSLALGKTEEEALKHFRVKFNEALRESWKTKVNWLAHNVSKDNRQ
PI3Kδ (p110δ/p85α), sequence (P27986 whole entry partner): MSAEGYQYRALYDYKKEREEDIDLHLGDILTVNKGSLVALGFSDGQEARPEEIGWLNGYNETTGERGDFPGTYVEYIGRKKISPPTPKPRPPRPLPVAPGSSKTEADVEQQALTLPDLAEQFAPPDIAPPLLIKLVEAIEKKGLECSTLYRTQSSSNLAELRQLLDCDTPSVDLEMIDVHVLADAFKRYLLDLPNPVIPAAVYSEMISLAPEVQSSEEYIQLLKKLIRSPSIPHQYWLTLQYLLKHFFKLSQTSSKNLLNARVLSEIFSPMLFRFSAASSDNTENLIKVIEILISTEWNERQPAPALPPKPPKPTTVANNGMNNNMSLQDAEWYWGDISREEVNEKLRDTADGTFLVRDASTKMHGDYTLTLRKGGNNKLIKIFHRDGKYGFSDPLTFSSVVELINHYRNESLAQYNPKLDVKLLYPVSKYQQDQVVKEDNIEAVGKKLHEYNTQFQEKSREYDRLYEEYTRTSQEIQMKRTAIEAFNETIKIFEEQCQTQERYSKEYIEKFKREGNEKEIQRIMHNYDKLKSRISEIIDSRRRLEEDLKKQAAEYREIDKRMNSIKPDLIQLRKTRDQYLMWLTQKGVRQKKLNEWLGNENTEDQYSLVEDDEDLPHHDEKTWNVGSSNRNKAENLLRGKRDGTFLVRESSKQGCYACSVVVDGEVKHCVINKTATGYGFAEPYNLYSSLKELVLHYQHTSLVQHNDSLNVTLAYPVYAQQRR

Row | Compound | IC50 [nM]
1 | COc1c(C(C)n2nc(C)c3c(N)ncnc32)cc(Cl)c(C)c1-c1ccc(C(=O)N(C)C)nc1 (stereo not shown) [Example 11, 5-{3-[1-(4-Amino-3-methyl-1H-pyrazolo[3,4-d]pyrimidin-1-yl)ethyl]-5-chloro-2-methoxy-6-methylphenyl}-N,N-dimethylpyridine-2-carboxamide bis(trifluoroacetate)] | < 10
2 | CCOc1c(C(C)n2nc(-c3cnn(CCO)c3)c3c(N)ncnc32)cc(Cl)c(C)c1-c1ccc(C(=O)N(C)C)nc1 (stereo not shown) [Example 52, 5-[3-(1-{4-amino-3-[1-(2-hydroxyethyl)-1H-pyrazol-4-yl]-1H-pyrazolo[3,4-d]pyrimidin-1-yl}ethyl)-5-chloro-2-ethoxy-6-methylphenyl]-N,N-dimethylpyridine-2-carboxamide bis(trifluoroacetate)] | < 10
3 | CCNC(=O)c1c(C)c(Cl)cc(C(C)n2nc(-c3cnc4[nH]ccc4c3)c3c(N)ncnc32)c1OCC (racemic) [Example 91, 3-{1-[4-Amino-3-(1H-pyrrolo[2,3-b]pyridin-5-yl)-1H-pyrazolo[3,4-d]pyrimidin-1-yl]ethyl}-5-chloro-2-ethoxy-N-ethyl-6-methylbenzamide] | < 10
4 | CCOc1c(C(C)n2nc(-c3cncc(C#N)c3)c3c(N)ncnc32)cc(Cl)c(C)c1-c1ccc(C(=O)N(C)C)nc1 (stereo not shown) [Example 57, 5-(3-{1-[4-amino-3-(5-cyanopyridin-3-yl)-1H-pyrazolo[3,4-d]pyrimidin-1-yl]ethyl}-5-chloro-2-ethoxy-6-methylphenyl)-N,N-dimethylpyridine-2-carboxamide tris(trifluoroacetate)] | < 10
5 | COc1c(C(C)n2nc(C)c3c(N)ncnc32)cc(Cl)c(C)c1C1CN(CC(F)(F)F)C1 (single isomer, unassigned) [Example 108, 1-(1-{5-Chloro-2-methoxy-4-methyl-3-[1-(2,2,2-trifluoroethyl)azetidin-3-yl]phenyl}ethyl)-3-methyl-1H-pyrazolo[3,4-d]pyrimidin-4-amine] | < 10
6 | CCOc1c(C(C)n2nc(C)c3c(N)ncnc32)cc(Cl)c(C)c1-c1ccc(C(=O)N(C)C)nc1 (stereo not shown) [Example 14, 5-{3-[1-(4-Amino-3-methyl-1H-pyrazolo[3,4-d]pyrimidin-1-yl)ethyl]-5-chloro-2-ethoxy-6-methylphenyl}-N,N-dimethylpyridine-2-carboxamide bis(trifluoroacetate)] | < 10

Second part, the compound after the results:

Row | IC50 [nM] | Compound
7 | < 10 | CCOc1c(C(C)n2nc(C)c3c(N)ncnc32)cc(Cl)c(C#N)c1C1CN(C(C)(C)CO)C1 (single isomer, unassigned) [Example 237, 4-[1-(4-Amino-3-methyl-1H-pyrazolo[3,4-d]pyrimidin-1-yl)ethyl]-6-chloro-3-ethoxy-2-[1-(2-hydroxy-1,1-dimethylethyl)azetidin-3-yl]benzonitrile]
8 | < 10 | COc1c(C(C)n2nc(-c3cn[nH]c3)c3c(N)ncnc32)cc(Cl)c(C)c1C1CN(CC#N)C1 (stereo not shown) [Example 126, [3-(3-{1-[4-Amino-3-(1H-pyrazol-4-yl)-1H-pyrazolo[3,4-d]pyrimidin-1-yl]ethyl}-5-chloro-2-methoxy-6-methylphenyl)azetidin-1-yl]acetonitrile]
9 | < 10 | COc1c(C(C)n2nc(C)c3c(N)ncnc32)cc(Cl)c(C)c1-c1cnn(CCN(C)C)c1 (single isomer, unassigned) [Example 183, 1-[1-(5-Chloro-3-{1-[2-(dimethylamino)ethyl]-1H-pyrazol-4-yl}-2-methoxy-4-methylphenyl)ethyl]-3-methyl-1H-pyrazolo[3,4-d]pyrimidin-4-amine]
10 | < 10 | CCOc1c(C(C)n2nc(C)c3c(N)ncnc32)cc(Cl)c(F)c1C1CN(CC(F)(F)F)C1 (racemic) [Example 141, 1-(1-{5-Chloro-2-ethoxy-4-fluoro-3-[1-(2,2,2-trifluoroethyl)azetidin-3-yl]phenyl}ethyl)-3-methyl-1H-pyrazolo[3,4-d]pyrimidin-4-amine]
